# Measured values: the supplement of paper PMC4862054
# Tested on: CAL-51
# Settings: 72 h
# Method: (§1)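 Drug sensitivity and resistance testing (DSRT) of breast cancer cell lines in 384-well plates, 5 concentrations in 10-fold dilutions over a compound-specific 10,000-fold range. After 72 h, cytotoxicity was read by CellTox Green fluorescence and viability by CellTiter-Glo luminescence (multiplexed), normalised to DMSO and benzethonium chloride controls. EC50 is the inflection point of the fitted dose-response curve (bottom asymptote free, so it can be relative for partial curves) and is censored at the highest tested concentration. Rows with DSS 0 (no meaningful response) were excluded.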
row,Compound,"EC50, CellTox Green [µM]"
1,COC1=C2C[C@@H](C)C[C@H](OC)[C@H](O)[C@@H](C)/C=C(\C)[C@H](OC(N)=O)[C@@H](OC)/C=C\C=C(/C)C(=O)NC(=CC1=O)C2=O [Geldanamycin],8.44
2,C[C@@]1(C(=O)Nc2ccc(F)nc2)CCCN1c1nc(Nc2cc(C3CC3)n[nH]2)c2cccn2n1,0.824
3,COc1ncc(-c2ccc3nccc(-c4ccnnc4)c3c2)cc1NS(=O)(=O)c1ccc(F)cc1F,0.0917

# Tested on: MDA-MB-231
# Settings: 72 h
# Method: as §1
row,Compound,"EC50, CellTox Green [µM]"
1,CN(c1ccccc1CNc1nc(Nc2ccc3c(c2)CC(=O)N3)ncc1C(F)(F)F)S(C)(=O)=O,1.82
2,COC1=C2C[C@@H](C)C[C@H](OC)[C@H](O)[C@@H](C)/C=C(\C)[C@H](OC(N)=O)[C@@H](OC)/C=C\C=C(/C)C(=O)NC(=CC1=O)C2=O [Geldanamycin],4.12
3,COC(=O)C[C@](O)(CCCC(C)(C)O)C(=O)O[C@@H]1C(OC)=C[C@]23CCCN2CCc2cc4c(cc2[C@H]13)OCO4 [Omacetaxine],0.62
4,C[C@@]1(C(=O)Nc2ccc(F)nc2)CCCN1c1nc(Nc2cc(C3CC3)n[nH]2)c2cccn2n1,1.98
5,COc1ncc(-c2ccc3nccc(-c4ccnnc4)c3c2)cc1NS(=O)(=O)c1ccc(F)cc1F,0.157
6,Cn1c(=O)c(F)c(Nc2ccc(I)cc2F)c2c(=O)n(C[C@@H](O)CO)cnc21 [TAK-733],0.0546

# Tested on: BT-474
# Settings: 72 h
# Method: as §1
row,Compound,"EC50, CellTox Green [µM]"
1,COC1=C2C[C@@H](C)C[C@H](OC)[C@H](O)[C@@H](C)/C=C(\C)[C@H](OC(N)=O)[C@@H](OC)/C=C\C=C(/C)C(=O)NC(=CC1=O)C2=O [Geldanamycin],6.83
2,COC(=O)C[C@](O)(CCCC(C)(C)O)C(=O)O[C@@H]1C(OC)=C[C@]23CCCN2CCc2cc4c(cc2[C@H]13)OCO4 [Omacetaxine],5.89
3,COc1ncc(-c2ccc3nccc(-c4ccnnc4)c3c2)cc1NS(=O)(=O)c1ccc(F)cc1F,0.134

# Tested on: HDQ-P1
# Settings: 72 h
# Method: as §1
row,Compound,"EC50, CellTox Green [µM]"
1,CN(c1ccccc1CNc1nc(Nc2ccc3c(c2)CC(=O)N3)ncc1C(F)(F)F)S(C)(=O)=O,0.0209
2,COC(=O)C[C@](O)(CCCC(C)(C)O)C(=O)O[C@@H]1C(OC)=C[C@]23CCCN2CCc2cc4c(cc2[C@H]13)OCO4 [Omacetaxine],0.689
3,C[C@@]1(C(=O)Nc2ccc(F)nc2)CCCN1c1nc(Nc2cc(C3CC3)n[nH]2)c2cccn2n1,5
4,O=C(c1ccc(OCCN2CCCCC2)cc1)c1c(-c2ccc(O)cc2)sc2cc(O)ccc12 [Raloxifene],> 10

# Tested on: MCF-10A
# Settings: 72 h
# Method: as §1
row,Compound,"EC50, CellTox Green [µM]"
1,CN(c1ccccc1CNc1nc(Nc2ccc3c(c2)CC(=O)N3)ncc1C(F)(F)F)S(C)(=O)=O,1.73
2,COC1=C2C[C@@H](C)C[C@H](OC)[C@H](O)[C@@H](C)/C=C(\C)[C@H](OC(N)=O)[C@@H](OC)/C=C\C=C(/C)C(=O)NC(=CC1=O)C2=O [Geldanamycin],2.37
3,COC(=O)C[C@](O)(CCCC(C)(C)O)C(=O)O[C@@H]1C(OC)=C[C@]23CCCN2CCc2cc4c(cc2[C@H]13)OCO4 [Omacetaxine],0.77
4,C[C@@]1(C(=O)Nc2ccc(F)nc2)CCCN1c1nc(Nc2cc(C3CC3)n[nH]2)c2cccn2n1,3.23
5,COc1ncc(-c2ccc3nccc(-c4ccnnc4)c3c2)cc1NS(=O)(=O)c1ccc(F)cc1F,0.349

# Tested on: DU-4475
# Settings: 72 h
# Method: as §1
row,Compound,"EC50, CellTox Green [µM]"
1,COC1=C2C[C@@H](C)C[C@H](OC)[C@H](O)[C@@H](C)/C=C(\C)[C@H](OC(N)=O)[C@@H](OC)/C=C\C=C(/C)C(=O)NC(=CC1=O)C2=O [Geldanamycin],4.72
2,Cn1c(=O)c(F)c(Nc2ccc(I)cc2F)c2c(=O)n(C[C@@H](O)CO)cnc21 [TAK-733],0.0291

# Tested on: BT-549
# Settings: 72 h
# Method: as §1
row,Compound,"EC50, CellTox Green [µM]"
1,CN(c1ccccc1CNc1nc(Nc2ccc3c(c2)CC(=O)N3)ncc1C(F)(F)F)S(C)(=O)=O,> 10
2,COC(=O)C[C@](O)(CCCC(C)(C)O)C(=O)O[C@@H]1C(OC)=C[C@]23CCCN2CCc2cc4c(cc2[C@H]13)OCO4 [Omacetaxine],0.26

# Tested on: HCC1937
# Settings: 72 h
# Method: as §1
row,Compound,"EC50, CellTox Green [µM]"
1,COC1=C2C[C@@H](C)C[C@H](OC)[C@H](O)[C@@H](C)/C=C(\C)[C@H](OC(N)=O)[C@@H](OC)/C=C\C=C(/C)C(=O)NC(=CC1=O)C2=O [Geldanamycin],2.45
2,COc1ncc(-c2ccc3nccc(-c4ccnnc4)c3c2)cc1NS(=O)(=O)c1ccc(F)cc1F,0.299
